{
  "source": "patent US20110308790A1",
  "about": "“IN SITU METHANOGENESIS MODELING AND RISK ANALYSIS” (CONOCOPHILLIPS COMPANY, priority 2010, published 2011)",
  "system": "microbes in production water",
  "assay": "biomass control with NaOCl solution (viable count CFU/mL)",
  "type": "cell-based",
  "details": "0.03-0.6% NaOCl, 23 hours, presence or absence of oxygen",
  "procedure": "The procedures to test the effectiveness, and the minimum dose, of NaOCl that is required to eliminate biomass in the injection line and injection well-bore during the field biogasification process are the following. The initial population of microbes in production water, placed in tubes that were to be incubated under defined oxygen saturation conditions was determined either by direct counting of cells using a Petroff Hausser bacterial counting chamber, or by counting the colony forming units (CFU/mL) of microorganisms that developed on specialized media after incubation for specific period. The population of microbes that were present in the incubated tubes (also with added carbon source-coal and nutrient additions) was determined over time after methane was detected in the headspace of the tubes. Thereafter, the same tubes were amended with different concentrations (0.6%, 0.3%, 0.15%, 0.1%, 0.075%, 0.06%, 0.03% and 0%) of NaOCl solution followed by incubation of the tubes for 23 hours to allow the biomolecule-oxidizing action of the solution to come to appreciable completion. Immediately after this, the population of viable microbes (i.e. CFU/mL) in the NaOCl-amended tubes was determined by plating a specific volume of the culture on defined solid medium.",
  "data": [
    {"smiles": "OCl", "note": "[NaOCl, sodium hypochlorite]", "values": [
      {"measurement": "inactivation of microorganisms (viable CFU/mL)", "result": "effective in inactiving microorganisms"}
    ]}
  ]
}
